Experimental data published in PubChem BioAssay (NCI).
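Tested at 5 concentrations; 48 h exposure; 96-well plates; endpoints linearly interpolated, else capped at highest concentration. GI50 is the concentration that inhibits growth by half. TGI is the concentration that stops growth completely.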

Key:
Experiment in all cases: DTP human tumour cell line panel, 48 h
[1] = test system: SF-295 CNS
[2] = test system: SN12C renal
[3] = test system: SW-620 colon
[4] = test system: HT29 colon
[5] = test system: A498 renal
[6] = test system: HCT-15 colon
[7] = test system: NCI-H226 lung
[8] = test system: SK-MEL-2 melanoma

SMILES	GI50 [1]	TGI [1]	GI50 [2]	TGI [2]	GI50 [3]	TGI [3]	GI50 [4]	TGI [4]	GI50 [5]	TGI [5]	GI50 [6]	TGI [6]	GI50 [7]	TGI [7]	GI50 [8]	TGI [8]
CC(C)c1ccc(C(=O)Nc2sc3c(c2C#N)CCC(=O)C3)cc1	1.36 µM	> 28.1 µM	0.378 µM	> 100 µM	0.266 µM	1.67 µM	0.465 µM	> 21.9 µM	1.92 µM	6.29 µM	0.31 µM	1.95 µM	3.88 µM	16.3 µM	1.6 µM	5.97 µM
COCCOC(=O)NC(=O)Nc1ccc(/C(=N/O)c2ccc(Cl)cc2)cc1	0.123 µM	0.559 µM	0.157 µM	59.3 µM	0.109 µM	> 100 µM	0.108 µM	15.3 µM	0.179 µM	3.46 µM	0.0842 µM	19.8 µM	1.14 µM	39.4 µM	–	29 µM
O=C(Nc1ccc(F)cc1)c1c(NC(=O)C(F)(F)F)sc2c1CCCCC2	1.01 µM	3.26 µM	1.94 µM	8.67 µM	2.51 µM	11.9 µM	2.48 µM	13.5 µM	0.0527 µM	0.752 µM	2.59 µM	10.8 µM	1.76 µM	5.46 µM	1.47 µM	6.75 µM
O=S(=O)(NCC1CCC(CNc2ccc(Cl)cc2)CC1)c1ccc(-c2ccccc2)cc1 (stereo not given)	> 50 µM	> 50 µM	> 50 µM	> 50 µM	> 50 µM	> 50 µM	–	–	–	–	> 50 µM	> 50 µM	21.2 µM	> 50 µM	> 50 µM	> 50 µM
CN1CCCN(C)C1c1cc([N+](=O)[O-])ccc1O	–	> 100 µM	–	85.7 µM	–	> 100 µM	–	> 100 µM	–	> 100 µM	–	> 100 µM	–	82.5 µM	–	> 100 µM
NC1CCN(c2nc(Nc3cccc(C(F)(F)F)c3)c3c(=O)[nH]ccc3n2)CC1	1.96 µM	3.59 µM	1.37 µM	2.8 µM	1.19 µM	2.67 µM	1.17 µM	4.89 µM	1.64 µM	3.14 µM	0.584 µM	2.26 µM	1.86 µM	3.7 µM	–	–
Clc1ccc2[nH]cc(-c3nc(-c4c[nH]c5ncccc45)cs3)c2c1	2.74 µM	7.66 µM	4.78 µM	20.9 µM	3.08 µM	11.6 µM	–	–	2.08 µM	10.4 µM	2.6 µM	7.9 µM	3.69 µM	22.2 µM	6.51 µM	23.7 µM
CCOC(=O)c1[nH]c(-c2ccc(Cl)cc2)cc1-c1cccnc1	0.453 µM	> 100 µM	1.44 µM	> 100 µM	2.87 µM	> 100 µM	0.35 µM	> 100 µM	0.811 µM	9.37 µM	0.437 µM	> 100 µM	17.3 µM	> 100 µM	–	–
COC(=O)c1c2c(c(C)[n+]([O-])c1C)C(=O)C=C(NCc1ccc(F)c(F)c1)C2=O	0.437 µM	1.59 µM	0.294 µM	1.03 µM	0.254 µM	1.36 µM	0.304 µM	3.17 µM	0.931 µM	2.43 µM	0.235 µM	1.44 µM	1.44 µM	3.27 µM	0.874 µM	2.37 µM
O=C(NCCCNc1cc(-c2cn(-c3ccccc3)nc2-c2cccc(O)c2)ccn1)c1ccccc1	1.76 µM	4.81 µM	6 µM	> 100 µM	2.36 µM	6.15 µM	1.71 µM	5.23 µM	2.32 µM	66.4 µM	1.51 µM	5.12 µM	2.72 µM	17.9 µM	3.42 µM	13.7 µM
Cc1nc2sc(C(=O)Nc3cccc4ccccc34)c(N)c2cc1C(=O)c1ccccc1	–	–	2.98 µM	> 50 µM	1.71 µM	> 50 µM	1.81 µM	> 50 µM	0.15 µM	1.17 µM	1.41 µM	> 50 µM	7.71 µM	> 50 µM	3.92 µM	> 50 µM
COC1CC2C=C(C)/C=C/C=C/C(=O)NC(c3ccccc3)C/C=C/CCC(O)CC(=O)C2=C1O (stereo not given)	0.246 µM	0.788 µM	0.227 µM	1.11 µM	0.31 µM	1.36 µM	0.238 µM	0.854 µM	0.166 µM	0.654 µM	0.274 µM	1.29 µM	0.43 µM	2.17 µM	0.223 µM	0.6 µM
NNc1cccc(/C=C/c2ccccc2)cc1=O	–	–	15.2 µM	> 100 µM	5.86 µM	> 100 µM	10.7 µM	> 100 µM	13 µM	55.7 µM	3.8 µM	> 100 µM	19.9 µM	> 100 µM	70.1 µM	> 100 µM
O=c1nc(Nc2cccc(Cl)c2)oc2cc(Cl)oc(=O)c12	12.1 µM	43 µM	10.4 µM	> 100 µM	10.9 µM	29.9 µM	9.39 µM	29.3 µM	10.9 µM	27.3 µM	5.82 µM	28.3 µM	17.1 µM	73.6 µM	2.02 µM	4.61 µM
CCOC(=O)C(CO)c1nc2c([nH]c1=O)c(=O)n(C)c(=O)n2C (stereo not given)	–	> 100 µM	–	> 100 µM	–	> 100 µM	–	> 100 µM	–	> 100 µM	–	> 100 µM	–	> 100 µM	–	> 100 µM
COc1ccc(-c2cc(/C=C3\C(=O)Nc4ccc(Cl)cc43)[nH]n2)cc1	3.29 µM	12.8 µM	5.51 µM	18.2 µM	4.01 µM	15.5 µM	3.35 µM	10.9 µM	3.83 µM	16.3 µM	2.8 µM	14.2 µM	12.1 µM	28.1 µM	–	–
CC(C)c1ccc(/C(C(=O)O)=C(\O)C(=O)O)cc1	–	> 100 µM	–	> 100 µM	–	> 100 µM	–	> 100 µM	–	> 100 µM	–	> 100 µM	–	> 100 µM	–	> 100 µM

SMILES	GI50 [1]	TGI [1]	GI50 [2]	TGI [2]	GI50 [3]	TGI [3]	GI50 [4]	TGI [4]	GI50 [5]	TGI [5]	GI50 [6]	TGI [6]	GI50 [7]	TGI [7]	GI50 [8]	TGI [8]
C=C1C(=O)O[C@H]2[C@H]1CC/C(COC(=O)NCc1ccc(Cn3c(=O)sn(CCCCl)c3=O)cc1)=C\CC[C@@]1(C)O[C@@H]21	17.7 µM	31.7 µM	1.36 µM	3.15 µM	1.23 µM	3.31 µM	2.46 µM	5.58 µM	2.83 µM	11.8 µM	1.94 µM	4.25 µM	16.6 µM	42.6 µM	4.83 µM	17.4 µM
N#Cc1cnc2cc(OC[C@@H](O)CO)c(NC(=O)CC3CSSC3)cc2c1Nc1ccc(OCc2cccc(F)c2)c(Cl)c1	0.88 µM	1.78 µM	0.144 µM	0.49 µM	0.216 µM	0.87 µM	0.225 µM	0.759 µM	0.848 µM	1.92 µM	1.63 µM	6.51 µM	–	–	0.117 µM	0.286 µM
N=C(N=C(N)N)N1CCN(c2ccncc2)CC1	> 1000 µM	> 1000 µM	> 1000 µM	> 1000 µM	> 1000 µM	> 1000 µM	> 1000 µM	> 1000 µM	155 µM	> 1000 µM	> 1000 µM	> 1000 µM	> 1000 µM	> 1000 µM	> 1000 µM	> 1000 µM
Cn1c(=O)c(Oc2ccccc2F)cc2cnc(NC3CCOCC3)nc21	> 25 µM	> 25 µM	> 25 µM	> 25 µM	> 25 µM	> 25 µM	> 25 µM	> 25 µM	> 14.7 µM	> 25 µM	> 25 µM	> 25 µM	> 25 µM	> 25 µM	> 25 µM	> 25 µM
CCCCCCCCCCN(CCCCCCCCCC)CC(=O)c1ccc2cc(Br)c3ccccc3c2c1	1.75 µM	3.53 µM	1.6 µM	3.33 µM	1.87 µM	3.75 µM	1.32 µM	2.77 µM	10.2 µM	22.4 µM	1.52 µM	3.34 µM	1.77 µM	3.47 µM	1.84 µM	3.48 µM
OCCSCc1ccccc1	–	> 100 µM	–	> 100 µM	–	> 100 µM	–	> 100 µM	–	> 100 µM	–	> 100 µM	–	> 100 µM	–	> 100 µM
C#CC1(O)C(COP(=O)(O)OC2CC(n3cc(F)c(=O)[nH]c3=O)OC2CO)OC(n2ccc(N)nc2=O)C1O (stereo not given)	< 0.01 µM	–	< 0.0106 µM	> 100 µM	< 0.01 µM	> 100 µM	< 0.0139 µM	> 100 µM	0.0824 µM	1.87 µM	< 0.01 µM	> 38.9 µM	0.0614 µM	> 36.1 µM	0.0735 µM	1.66 µM
NC(=O)c1cc(Br)cc(C2CCCCC2)c1O	11.3 µM	24.5 µM	12.2 µM	25.1 µM	15.5 µM	29.8 µM	16.8 µM	32 µM	1.01 µM	14.8 µM	13.7 µM	30.7 µM	13.6 µM	31 µM	15.8 µM	29.7 µM
COc1ccc2c(Nc3ccc(NS(C)(=O)=O)cc3)c3ccccc3nc2c1	0.381 µM	2.53 µM	0.487 µM	13.2 µM	0.276 µM	3.29 µM	0.326 µM	1.58 µM	0.375 µM	2.05 µM	1.41 µM	11.4 µM	0.229 µM	1.59 µM	0.334 µM	2.29 µM
ClC(Cl)c1nc(-c2cccnc2)n2nc(-c3ccccc3)cc2n1	2.27 µM	6.52 µM	–	–	0.666 µM	5.3 µM	–	–	0.0299 µM	2.17 µM	0.472 µM	3.44 µM	–	–	–	–
CC1=C[C@H]2c3c(c(O)c(O)c4oc5ccccc5c(=O)c34)[C@H](c3cc(O)c(O)c4oc5ccccc5c(=O)c34)[C@H]2C(C)(C)C1	0.443 µM	2.28 µM	1.36 µM	6.71 µM	0.802 µM	10.7 µM	0.86 µM	13.8 µM	0.519 µM	3.38 µM	0.909 µM	12.9 µM	–	–	2.24 µM	6.72 µM
CCN1C(=S)N(CC)C2C1NC(=S)N2/N=C/C=C/c1ccccc1 (stereo not given)	1.04 µM	11.8 µM	3.49 µM	16.8 µM	0.803 µM	17.8 µM	0.511 µM	12.1 µM	0.641 µM	4.67 µM	0.77 µM	14.3 µM	6.73 µM	24.4 µM	1.62 µM	13.7 µM
CC(=O)O[C@H]1CC[C@@]2(C)C(=CC[C@H]3[C@@H]4C/C(=C\c5cccc(OCCN6CCOCC6)c5)[C@H](OC(C)=O)[C@@]4(C)CC[C@@H]32)C1	2.48 µM	10.5 µM	25 µM	> 100 µM	4.87 µM	15.7 µM	2.16 µM	5.11 µM	15.3 µM	29.1 µM	2.95 µM	11.5 µM	17.9 µM	85.9 µM	12.2 µM	24.5 µM
CC(C)(C)NCc1cc(C(C)(C)C)cc(-c2ccc(Cl)cc2)c1O	–	36.6 µM	–	30.3 µM	–	–	–	53.2 µM	–	–	–	25.7 µM	–	–	–	37.9 µM
Cc1nc2ccc(Nc3nc(NCCN4CCOCC4)nc(Nc4ccc(F)cc4)n3)cc2n1Cc1ccccc1	1.49 µM	2.93 µM	5.57 µM	> 100 µM	3.24 µM	10.7 µM	–	–	1.35 µM	5.13 µM	2.16 µM	5.68 µM	4.02 µM	27.9 µM	2.16 µM	4.61 µM
Nc1ccc2c(c1)NCCN2	–	> 100 µM	–	> 100 µM	–	–	–	> 100 µM	–	–	–	> 100 µM	–	52.2 µM	–	> 100 µM
Nc1nnc2cc(Cl)ccc2n1	74 µM	> 100 µM	16 µM	> 100 µM	> 100 µM	> 100 µM	–	–	> 100 µM	> 100 µM	> 100 µM	> 100 µM	> 100 µM	> 100 µM	–	–
